Results taken from US11572590B2, “Methods for evaluating tumor cell spheroids using 3D microfluidic cell culture device” (Dana-Farber Cancer Institute, Inc., priority 2017, dated 2023).
Where two headings read alike, the source gives them in different places.

Legend:
Assay in all cases: SelectScreen Kinase Profiling, single point inhibition and IC50 for off-target kinases
Type in all cases: biochemical
off-target kinases [1] = molecular target: off-target kinases (Homo sapiens, UniProt P50613); details: CDK7/cyclin H/MNAT1, Adapta, ATP Km app
Chain of off-target kinases (Homo sapiens, UniProt P50613) (P50613 whole entry): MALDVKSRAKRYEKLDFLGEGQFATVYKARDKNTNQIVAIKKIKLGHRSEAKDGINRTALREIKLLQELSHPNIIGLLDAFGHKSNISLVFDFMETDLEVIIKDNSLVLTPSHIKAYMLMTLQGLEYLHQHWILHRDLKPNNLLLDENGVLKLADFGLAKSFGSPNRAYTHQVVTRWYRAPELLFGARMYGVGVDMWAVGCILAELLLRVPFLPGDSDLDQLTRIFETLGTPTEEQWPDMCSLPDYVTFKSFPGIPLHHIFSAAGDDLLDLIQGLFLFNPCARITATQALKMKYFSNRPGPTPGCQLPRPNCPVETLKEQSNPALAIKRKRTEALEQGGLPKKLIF

off-target kinases [2] = molecular target: off-target kinases (Homo sapiens, UniProt O75716); details: STK16 (PKL12), LanthaScreen Binding
Chain of off-target kinases (Homo sapiens, UniProt O75716) (O75716 whole entry): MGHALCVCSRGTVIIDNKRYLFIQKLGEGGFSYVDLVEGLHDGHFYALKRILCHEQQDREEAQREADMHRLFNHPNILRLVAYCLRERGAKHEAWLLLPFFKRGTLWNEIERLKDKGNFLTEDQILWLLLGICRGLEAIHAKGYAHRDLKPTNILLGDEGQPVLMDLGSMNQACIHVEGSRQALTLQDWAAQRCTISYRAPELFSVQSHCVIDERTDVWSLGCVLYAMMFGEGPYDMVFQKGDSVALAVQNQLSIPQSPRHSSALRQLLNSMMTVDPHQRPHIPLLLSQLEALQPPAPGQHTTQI

off-target kinases [3] = molecular target: off-target kinases (Homo sapiens, UniProt P51957); details: NEK4, ZLYTE, ATP Km app
Chain of off-target kinases (Homo sapiens, UniProt P51957) (P51957 whole entry): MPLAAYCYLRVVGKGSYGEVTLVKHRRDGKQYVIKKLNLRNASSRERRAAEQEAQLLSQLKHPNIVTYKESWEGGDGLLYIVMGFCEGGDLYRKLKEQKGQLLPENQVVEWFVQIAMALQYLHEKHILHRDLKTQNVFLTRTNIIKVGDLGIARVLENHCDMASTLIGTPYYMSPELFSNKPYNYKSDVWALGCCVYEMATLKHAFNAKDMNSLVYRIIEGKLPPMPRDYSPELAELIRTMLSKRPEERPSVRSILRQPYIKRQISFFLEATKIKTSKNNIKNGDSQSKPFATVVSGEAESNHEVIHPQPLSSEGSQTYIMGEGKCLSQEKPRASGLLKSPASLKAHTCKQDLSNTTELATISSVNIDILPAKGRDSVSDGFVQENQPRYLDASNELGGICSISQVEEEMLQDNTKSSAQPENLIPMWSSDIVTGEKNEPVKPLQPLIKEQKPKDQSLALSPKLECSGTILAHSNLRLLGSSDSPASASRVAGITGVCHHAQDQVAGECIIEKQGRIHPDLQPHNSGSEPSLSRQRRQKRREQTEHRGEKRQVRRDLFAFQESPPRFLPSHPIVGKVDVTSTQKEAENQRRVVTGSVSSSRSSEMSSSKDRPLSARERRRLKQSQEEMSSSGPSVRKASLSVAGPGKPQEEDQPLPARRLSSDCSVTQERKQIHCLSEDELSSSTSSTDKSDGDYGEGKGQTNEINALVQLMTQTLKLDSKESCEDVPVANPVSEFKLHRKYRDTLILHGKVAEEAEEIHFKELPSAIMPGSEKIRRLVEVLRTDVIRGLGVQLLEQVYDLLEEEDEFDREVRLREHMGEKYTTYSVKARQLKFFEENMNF

off-target kinases [4] = molecular target: off-target kinases (Homo sapiens, UniProt P10721, D820E); details: KIT D820E, mutant y, LanthaScreen Binding
Chain of off-target kinases (Homo sapiens, UniProt P10721, D820E) (P10721 26-976 D820E): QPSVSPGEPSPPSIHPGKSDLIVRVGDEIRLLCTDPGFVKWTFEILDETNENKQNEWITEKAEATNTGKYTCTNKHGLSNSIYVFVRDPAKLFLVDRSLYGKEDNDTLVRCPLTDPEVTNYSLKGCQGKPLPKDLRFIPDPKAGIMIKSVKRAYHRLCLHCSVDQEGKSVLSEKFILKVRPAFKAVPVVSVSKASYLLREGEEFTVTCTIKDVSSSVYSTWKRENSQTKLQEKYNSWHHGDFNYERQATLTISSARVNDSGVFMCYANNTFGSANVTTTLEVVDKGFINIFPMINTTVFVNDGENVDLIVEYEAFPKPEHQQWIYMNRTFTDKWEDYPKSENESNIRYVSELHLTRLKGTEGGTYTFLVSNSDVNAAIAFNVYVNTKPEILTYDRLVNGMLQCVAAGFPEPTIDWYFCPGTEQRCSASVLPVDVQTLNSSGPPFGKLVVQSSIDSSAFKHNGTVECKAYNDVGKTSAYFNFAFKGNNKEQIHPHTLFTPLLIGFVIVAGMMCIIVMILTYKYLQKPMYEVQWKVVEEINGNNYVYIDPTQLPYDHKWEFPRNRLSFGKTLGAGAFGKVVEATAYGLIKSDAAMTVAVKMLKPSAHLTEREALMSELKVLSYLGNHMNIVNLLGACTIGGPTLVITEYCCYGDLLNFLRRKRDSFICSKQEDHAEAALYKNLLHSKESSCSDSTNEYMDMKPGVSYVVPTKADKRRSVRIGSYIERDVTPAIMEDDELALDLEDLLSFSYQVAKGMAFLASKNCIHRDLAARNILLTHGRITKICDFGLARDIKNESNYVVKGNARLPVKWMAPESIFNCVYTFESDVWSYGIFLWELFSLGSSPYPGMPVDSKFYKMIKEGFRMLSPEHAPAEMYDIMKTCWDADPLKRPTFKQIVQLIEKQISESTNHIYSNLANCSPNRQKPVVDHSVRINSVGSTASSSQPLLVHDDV

off-target kinases [5] = molecular target: off-target kinases (Homo sapiens, UniProt P30530); details: AXL, ZLYTE, ATP Km app
off-target kinases [6] = molecular target: off-target kinases (Homo sapiens, UniProt O00750); details: PIK3C2B (PI3K-C2 beta), Adapta, ATP 10
off-target kinases [7] = molecular target: off-target kinases (Homo sapiens, UniProt P00519, M351T); details: ABL1 M351T, LanthaScreen Binding
off-target kinases [8] = molecular target: off-target kinases (Homo sapiens, UniProt P22607, K650E); details: FGFR3 K650E (mutant), ZLYTE, ATP Km app
Chain of off-target kinases (Homo sapiens, UniProt P22607, K650E) (P22607 23-806 K650E): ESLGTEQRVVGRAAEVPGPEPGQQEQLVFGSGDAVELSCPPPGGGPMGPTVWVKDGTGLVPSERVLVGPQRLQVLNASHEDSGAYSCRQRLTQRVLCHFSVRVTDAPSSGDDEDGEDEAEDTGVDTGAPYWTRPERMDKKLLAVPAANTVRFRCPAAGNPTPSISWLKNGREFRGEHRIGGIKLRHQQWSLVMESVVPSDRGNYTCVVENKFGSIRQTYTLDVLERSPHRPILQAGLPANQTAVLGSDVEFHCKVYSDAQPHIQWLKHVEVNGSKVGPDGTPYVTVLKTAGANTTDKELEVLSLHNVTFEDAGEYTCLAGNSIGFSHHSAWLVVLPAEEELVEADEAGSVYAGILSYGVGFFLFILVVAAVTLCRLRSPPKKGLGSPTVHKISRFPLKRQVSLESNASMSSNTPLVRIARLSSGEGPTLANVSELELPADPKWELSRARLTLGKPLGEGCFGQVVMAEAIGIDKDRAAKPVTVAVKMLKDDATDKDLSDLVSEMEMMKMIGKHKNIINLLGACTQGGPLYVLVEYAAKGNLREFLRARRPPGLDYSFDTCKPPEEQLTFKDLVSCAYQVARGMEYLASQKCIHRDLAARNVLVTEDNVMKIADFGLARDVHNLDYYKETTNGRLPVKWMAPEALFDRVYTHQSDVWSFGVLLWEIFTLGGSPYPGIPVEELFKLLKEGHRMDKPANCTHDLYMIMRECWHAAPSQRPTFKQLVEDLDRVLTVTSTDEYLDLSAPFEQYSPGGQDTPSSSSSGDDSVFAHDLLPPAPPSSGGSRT

off-target kinases [9] = molecular target: off-target kinases (Homo sapiens, UniProt P17612); details: PRKACA (PKA), ZLYTE, ATP Km app
off-target kinases [10] = molecular target: off-target kinases (Homo sapiens, UniProt P07949, V804L); details: RET V804L, ATP Km app, ZLYTE
Chain of off-target kinases (Homo sapiens, UniProt P07949, V804L) (P07949 29-1114 V804L): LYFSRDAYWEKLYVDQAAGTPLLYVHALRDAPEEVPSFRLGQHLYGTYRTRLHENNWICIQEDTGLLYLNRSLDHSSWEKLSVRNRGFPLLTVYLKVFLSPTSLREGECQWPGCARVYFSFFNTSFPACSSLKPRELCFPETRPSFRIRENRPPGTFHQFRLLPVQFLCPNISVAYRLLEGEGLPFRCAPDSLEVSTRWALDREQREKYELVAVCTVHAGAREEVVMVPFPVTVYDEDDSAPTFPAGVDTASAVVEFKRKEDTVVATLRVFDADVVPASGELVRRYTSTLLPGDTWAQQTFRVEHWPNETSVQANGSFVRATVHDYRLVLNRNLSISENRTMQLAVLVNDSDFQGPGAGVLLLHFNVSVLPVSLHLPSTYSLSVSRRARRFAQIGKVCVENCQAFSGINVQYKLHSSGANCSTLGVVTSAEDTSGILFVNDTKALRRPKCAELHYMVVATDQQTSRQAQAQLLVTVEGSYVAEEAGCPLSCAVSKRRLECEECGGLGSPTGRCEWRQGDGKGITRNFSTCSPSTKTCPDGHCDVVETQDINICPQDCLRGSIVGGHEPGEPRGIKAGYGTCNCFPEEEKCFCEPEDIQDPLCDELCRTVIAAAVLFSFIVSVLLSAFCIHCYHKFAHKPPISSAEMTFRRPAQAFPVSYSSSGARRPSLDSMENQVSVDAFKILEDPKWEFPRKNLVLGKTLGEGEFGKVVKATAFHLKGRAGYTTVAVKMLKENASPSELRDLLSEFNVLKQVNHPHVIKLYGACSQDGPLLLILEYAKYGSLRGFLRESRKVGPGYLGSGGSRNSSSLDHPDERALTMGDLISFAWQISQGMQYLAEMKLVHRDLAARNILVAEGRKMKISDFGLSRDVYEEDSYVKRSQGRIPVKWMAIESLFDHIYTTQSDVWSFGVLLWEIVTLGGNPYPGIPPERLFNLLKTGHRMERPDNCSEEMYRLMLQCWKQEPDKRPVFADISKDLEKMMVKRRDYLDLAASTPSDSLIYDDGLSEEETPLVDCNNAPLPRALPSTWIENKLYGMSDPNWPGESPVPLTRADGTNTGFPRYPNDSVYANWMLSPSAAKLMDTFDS

Structure (SMILES): N#Cc1cc(-c2ncnc(Nc3ccc(N4CCN(C5COC5)CC4)cc3)n2)ccc1OC1CCOCC1 [Compound 1, 5-(4-((4-(4-(oxetan-3-yl)piperazin-1-yl)phenyl)amino)-1,3,5-triazin-2-yl)-2-((tetrahydro-2H-pyran-4-yl)oxy)benzonitrile]
- inhibition (off-target kinases [1]; read-out: % Inhibition 1): 17%
- inhibition (off-target kinases [1]; read-out: % Inhibition 2): 14%
- inhibition (off-target kinases [1]; read-out: % Inhibition Avg): 15%
- inhibition (off-target kinases [2]; read-out: % Inhibition 1): 95%
- inhibition (off-target kinases [2]; read-out: % Inhibition 2): 93%
- inhibition (off-target kinases [2]; read-out: % Inhibition Avg): 94%
- inhibition (off-target kinases [3]; read-out: % Inhibition 1): 23%
- inhibition (off-target kinases [3]; read-out: % Inhibition 2): 23%
- inhibition (off-target kinases [3]; read-out: % Inhibition Avg): 23%
- inhibition (off-target kinases [4]; read-out: % Inhibition 1): 18%
- inhibition (off-target kinases [4]; read-out: % Inhibition 2): 19%
- inhibition (off-target kinases [4]; read-out: % Inhibition Avg): 18%
- inhibition (off-target kinases [5]; read-out: % Inhibition 1): 22%
- inhibition (off-target kinases [5]; read-out: % Inhibition 2): 25%
- inhibition (off-target kinases [5]; read-out: % Inhibition Avg): 24%
- inhibition (off-target kinases [6]; read-out: % Inhibition 1): 3%
- inhibition (off-target kinases [6]; read-out: % Inhibition 2): -7%
- inhibition (off-target kinases [6]; read-out: % Inhibition Avg): -2%
- inhibition (off-target kinases [7]; read-out: % Inhibition 1): 65%
- inhibition (off-target kinases [7]; read-out: % Inhibition 2): 69%
- inhibition (off-target kinases [7]; read-out: % Inhibition Avg): 67%
- inhibition (off-target kinases [8]; read-out: % Inhibition 1): 11%
- inhibition (off-target kinases [8]; read-out: % Inhibition 2): 6%
- inhibition (off-target kinases [8]; read-out: % Inhibition Avg): 8%
- inhibition (off-target kinases [9]; read-out: % Inhibition 1): 4%
- inhibition (off-target kinases [9]; read-out: % Inhibition 2): 1%
- inhibition (off-target kinases [9]; read-out: % Inhibition Avg): 3%
- inhibition (off-target kinases [10]; read-out: % Inhibition 1): 71%
- inhibition (off-target kinases [10]; read-out: % Inhibition 2): 66%
- inhibition (off-target kinases [10]; read-out: % Inhibition Avg): 69%
